PubChem BioAssay (NCI)
Values joined by “and” are separate entries in the source; they are usually repeats but may differ in a detail not shown here. Equal entries are not always repeated.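 Cells were grown in 96-well plates and exposed to each compound for 48 hours at five concentrations; endpoints were interpolated linearly between bracketing concentrations, or set to the highest concentration if not reached. GI50: concentration for 50% inhibition of growth. TGI: concentration producing complete growth inhibition.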

What was measured:
Test in all cases: DTP human tumour cell line panel, 48 h
NCI-H522 lung = test system: NCI-H522 lung
HCT-116 colon = test system: HCT-116 colon
CCRF-CEM leukemia = test system: CCRF-CEM leukemia
HCT-15 colon = test system: HCT-15 colon
SK-MEL-28 melanoma = test system: SK-MEL-28 melanoma
MDA-N = test system: MDA-N
EKVX NSCLC = test system: EKVX NSCLC
RPMI-8226 leukemia = test system: RPMI-8226 leukemia
SF-539 CNS = test system: SF-539 CNS
HL-60(TB) leukemia = test system: HL-60(TB) leukemia

SMILES	TGI (NCI-H522 lung)	TGI (HCT-116 colon)	TGI (CCRF-CEM leukemia)	TGI (HCT-15 colon)	TGI (SK-MEL-28 melanoma)	TGI (MDA-N)	TGI (EKVX NSCLC)	TGI (RPMI-8226 leukemia)	TGI (SF-539 CNS)	TGI (HL-60(TB) leukemia)	GI50 (EKVX NSCLC)	GI50 (HL-60(TB) leukemia)	GI50 (NCI-H522 lung)	GI50 (RPMI-8226 leukemia)	GI50 (SF-539 CNS)	GI50 (HCT-116 colon)	GI50 (CCRF-CEM leukemia)	GI50 (HCT-15 colon)	GI50 (SK-MEL-28 melanoma)
CCOC(=O)C1(C(=O)OCC)COS(=O)OC1	2.1 µM	31.2 µM	> 100 µM	54.6 µM	95.7 µM	> 100 µM													
CC1CN=C(N(C(=O)Nc2ccc(F)c(Cl)c2)c2ccccc2)S1 (stereo unspecified)		67.8 µM	> 100 µM	75.3 µM	33.5 µM	34.7 µM	62.4 µM	> 100 µM	> 100 µM										
CC(C(=O)N1C(=O)N(C(=O)C(C)C(O)c2ccccc2)C2CCCCC21)C(O)c1ccccc1 (stereo unspecified)	> 100 µM	> 100 µM	> 100 µM	> 100 µM	> 100 µM		> 100 µM	> 100 µM		70 µM									
COc1cc2cc(Oc3ccc(NC(=O)c4cc(C(F)(F)F)cc(C(F)(F)F)c4)cc3)c(C)nc2cc1OC	> 50 µM	> 50 µM	> 50 µM	> 50 µM	> 50 µM		> 50 µM	> 50 µM	> 50 µM	> 50 µM	2.04 µM	3.51 µM	2.01 µM	1.57 µM	> 50 µM	1.56 µM	2.32 µM	2.75 µM	> 50 µM
CC[n+]1[b-](C(C)(C)C)n(/N=C/C(C)(C)C)[b-](C(C)(C)C)[n+]1CC	> 100 µM	> 100 µM	> 100 µM	> 100 µM	> 100 µM	> 100 µM	> 100 µM		> 100 µM										
N=C(N)c1ccc(-c2ccc(-c3cccs3)s2)cc1					3.07 µM			2.12 µM	3.09 µM					0.267 µM	1.65 µM				1.63 µM
Cc1ccc([N+](=O)[O-])cc1N=NC(=O)NNc1cc([N+](=O)[O-])ccc1C	29.7 µM	36.8 µM	40.2 µM	74.3 µM	87.5 µM	82.8 µM		> 100 µM		> 100 µM									
COc1cc2c(cc1OC)[C@H]1CN3CCC[C@H]3C=C1c1ccc(OC)c(O)c1-2	0.000856 µM	0.00302 µM	0.0376 µM and 0.35 µM			0.112 µM		0.0012 µM	0.0058 µM and 0.0358 µM										
O=C(NC(COC(=O)C(Cc1ccccc1)NC(=O)c1ccccc1)Cc1ccccc1)c1ccccc1 (stereo unspecified)	> 50 µM			> 50 µM	> 50 µM		> 50 µM	> 50 µM	> 50 µM	> 50 µM									
C[C@@H](Cl)[C@H]1CCCN(Cc2ccc(Br)cc2)C1	> 12.5 µM		> 12.5 µM	> 12.5 µM	> 12.5 µM	> 12.5 µM	> 12.5 µM	> 12.5 µM	> 12.5 µM	> 12.5 µM									
CSC(=Nc1ccccc1)N(c1ccccc1)c1nc(=[N+](C)C)ss1	1.72 µM	12 µM	4.48 µM	13.7 µM	2.83 µM		29.5 µM	3.14 µM	14.8 µM	3.2 µM									
CC(C)(C)OC(=O)NCCC(N)=S		> 100 µM	> 100 µM	> 100 µM	> 100 µM	> 100 µM	> 100 µM	> 100 µM	> 100 µM	> 100 µM									
Nc1nc(Cl)cc(NCC2(CO)CCC(CCc3ccccc3)C2)n1 (stereo unspecified)	25.6 µM	21.9 µM	40.1 µM	34 µM	37.3 µM	28.1 µM	25.9 µM		33.4 µM	33.1 µM									
Oc1[nH]c2ccc(Br)cc2c1N=NC(=S)Nc1ccc(F)cc1	38 µM	18 µM		11.8 µM	39.8 µM	14.4 µM			38.8 µM	6.84 µM									
Cc1ccc(OCCn2cc(Nc3ccccc3)c(=O)n(CCOc3ccc(C)cc3)c2=O)cc1	> 100 µM	> 100 µM	> 100 µM	> 100 µM	> 100 µM	> 100 µM	> 100 µM	> 100 µM	> 100 µM										
CC(=O)Oc1cc(C(F)(F)F)ccc1C(=O)OC1(C)OC(=O)c2ccc(C(F)(F)F)cc2O1 (stereo unspecified)	> 100 µM	> 100 µM	> 100 µM	> 100 µM	> 100 µM	> 100 µM	> 100 µM		> 100 µM	> 100 µM									
CC(C)=CCC/C(C)=C/COC(C)(C)C1=CCC(C)CC1 (stereo unspecified) (tested in a mixture with another compound)	> 100 µM	> 100 µM		> 100 µM	> 100 µM	> 100 µM	> 100 µM	> 100 µM	29.3 µM	50.9 µM									
C=Cc1ccc(C)[n+](C[Si](C)(C)O[Si](C)(C)C[n+]2cc(C=C)ccc2C)c1	> 100 µM	> 100 µM	> 100 µM		> 100 µM		> 100 µM	> 100 µM	> 100 µM	> 100 µM									
CCC1=CC2CN3Cn4c(c(COCc5c6n(c7ccccc57)CN5CC7C=C(CC)C5C6(C(=O)OC)C7)c5ccccc54)C(C(=O)OC)(C2)C13	> 100 µM	> 100 µM	> 100 µM	> 100 µM	> 100 µM		> 100 µM	> 100 µM		> 100 µM									
Cc1cc(-c2nc3ccccc3s2)ccc1NC(=O)[C@@H](N)CCCCN	19.2 µM	19.9 µM	22.5 µM	24.3 µM	31.3 µM	9.75 µM	25.1 µM												
NC(CC1=CS(=O)(=O)c2ccc(Cl)cc21)C(=O)O (stereo unspecified)	> 100 µM	> 100 µM		> 100 µM	> 100 µM	> 100 µM	> 100 µM	> 100 µM	> 100 µM										
CC1=C2C(=C[C@H]3[C@]4(C)CCCC(C)(C)[C@H]4CC[C@]34O[C@H]24)OC1=O	> 100 µM	> 100 µM		> 100 µM	> 100 µM	> 100 µM	> 100 µM	> 100 µM											
C(=Nc1ccc(-c2nc3ccccc3o2)cc1)c1ccco1	> 100 µM	> 100 µM		> 100 µM	> 100 µM	> 100 µM	> 100 µM	36.9 µM	> 100 µM										
